Results published in publication PMC2680092 (Journal of molecular biology, 2008).
Like-named read-outs stand apart in the source and are kept apart here.

Molecular target: DEN MTase (Dengue virus type 2, UniProt P29990)
Assay: GTP-Bodipy displacement
Format: binding
Settings: for Fold Affinity Reduction: Ki relative to GTP
[1] = 10 nM GTP-Bodipy, 500 nM DEN MTase

Sequence of DEN MTase (P29990 2493-2755 limits assumed): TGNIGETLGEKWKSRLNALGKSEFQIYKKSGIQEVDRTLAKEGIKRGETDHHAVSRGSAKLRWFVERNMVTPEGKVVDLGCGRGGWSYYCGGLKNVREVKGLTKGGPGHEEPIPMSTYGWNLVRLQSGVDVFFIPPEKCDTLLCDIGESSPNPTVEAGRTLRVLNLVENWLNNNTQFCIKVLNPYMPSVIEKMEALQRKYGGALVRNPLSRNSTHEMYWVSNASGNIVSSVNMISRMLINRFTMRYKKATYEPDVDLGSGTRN

| SMILES | Ki [1] [nM] | Ki [nM] | Fold Affinity Reduction |
| --- | --- | --- | --- |
| CSc1nc(N)nc2c1ncn2C1OC(COP(=O)(O)OP(=O)(O)OP(=O)(O)O)C(O)C1O (centres unmarked) [6-methylthio GTP, 6-methylthio-GTP] | 230 | – | – |
| Nc1ncnc2c1ncn2[C@@H]1O[C@H](COP(=O)(O)OP(=O)(O)OP(=O)(O)O)[C@@H](O)[C@H]1O [ATP, Adenosine triphosphate] | – | 350000 | 8750 |
| Nc1nc2c(ncn2[C@@H]2O[C@H](COP(=O)(O)OP(=O)(O)O)[C@@H](O)[C@H]2O)c(=O)[nH]1 [GDP] | 100 | – | 3 |
| Nc1nc2c(ncn2[C@@H]2O[C@H](COP(=O)(O)O)[C@@H](O)[C@H]2O)c(=O)[nH]1 [GMP] | 950 | – | – |
| Nc1nc2c(ncn2[C@@H]2O[C@H](COP(=O)(O)OP(=O)(O)OP(=O)(O)O)[C@@H](O)[C@H]2O)c(=O)[nH]1 [GTP, guanosine triphosphate] | – | 40 | 0 |
| Nc1nc2c(ncn2[C@@H]2O[C@H](CO)[C@@H](O)[C@H]2O)c(=O)[nH]1 [Guanosine, guanosine] | – | 260000 | 6400 |
| O=c1[nH]cnc2c1ncn2[C@@H]1O[C@H](COP(=O)(O)OP(=O)(O)OP(=O)(O)O)[C@@H](O)[C@H]1O [ITP, Inosine triphosphate] | 120 | – | 3 |
| O=c1[nH]c(=O)c2ncn([C@@H]3O[C@H](COP(=O)(O)OP(=O)(O)OP(=O)(O)O)[C@@H](O)[C@H]3O)c2[nH]1 [XTP, xanthine triphosphate] | 480 | – | 12 |
| Cn1c[n+]([C@@H]2O[C@H](COP(=O)(O)OP(=O)(O)OP(=O)(O)OC[C@H]3O[C@@H](n4cnc5c(N)ncnc54)[C@H](O)[C@@H]3O)[C@@H](O)[C@H]2O)c2nc(N)[nH]c(=O)c21 [^7meGpppA] | 170 | – | – |
| Cn1c[n+]([C@@H]2O[C@H](COP(=O)(O)OP(=O)(O)OP(=O)(O)OC[C@H]3O[C@@H](n4cnc5c(=O)[nH]c(N)nc54)[C@H](O)[C@@H]3O)[C@@H](O)[C@H]2O)c2nc(N)[nH]c(=O)c21 [^7meGpppG] | 100 | – | – |
| Nc1nc2c(ncn2[C@H]2C[C@H](O)[C@@H](COP(=O)(O)OP(=O)(O)OP(=O)(O)O)O2)c(=O)[nH]1 [dGTP] | 610 | – | 15 |
| Nc1nc2c(ncn2[C@H]2CC[C@@H](COP(=O)(O)OP(=O)(O)OP(=O)(O)O)O2)c(=O)[nH]1 [ddGTP] | 770 | – | 19 |
